The test addresses Hepatitis C Virus NS3/4A protease V36M (Hepatitis C virus genotype 1b, UniProt O92972, V1062M). As to the kind of experiment: HCV NS3/4A protease FRET assay, V36M. The class given is biochemical.

Sequence of Hepatitis C Virus NS3/4A protease V36M (O92972 1027-1657 V1062M): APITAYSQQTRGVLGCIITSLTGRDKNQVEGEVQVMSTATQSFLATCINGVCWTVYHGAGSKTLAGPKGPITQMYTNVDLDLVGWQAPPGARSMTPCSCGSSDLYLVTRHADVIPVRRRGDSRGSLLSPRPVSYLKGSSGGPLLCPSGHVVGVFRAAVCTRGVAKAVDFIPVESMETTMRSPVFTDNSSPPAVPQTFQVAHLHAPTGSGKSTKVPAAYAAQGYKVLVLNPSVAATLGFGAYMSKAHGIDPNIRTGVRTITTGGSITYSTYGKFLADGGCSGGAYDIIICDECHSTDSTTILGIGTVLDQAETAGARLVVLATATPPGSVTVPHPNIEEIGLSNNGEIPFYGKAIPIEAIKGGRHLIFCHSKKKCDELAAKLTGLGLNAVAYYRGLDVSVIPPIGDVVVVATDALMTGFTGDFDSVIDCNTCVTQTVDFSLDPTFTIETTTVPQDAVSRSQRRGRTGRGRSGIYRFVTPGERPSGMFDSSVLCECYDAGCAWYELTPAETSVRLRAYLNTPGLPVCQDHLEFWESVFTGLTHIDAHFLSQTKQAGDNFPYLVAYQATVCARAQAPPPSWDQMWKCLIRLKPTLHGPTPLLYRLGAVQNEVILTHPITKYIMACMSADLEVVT
Sequence of Hepatitis C Virus NS3/4A protease V36M (O92972 1658-1711 partner limits assumed): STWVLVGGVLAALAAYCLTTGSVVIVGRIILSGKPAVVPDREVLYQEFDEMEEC

As to `C=C[C@@H]1C[C@]1(NC(=O)[C@@H]1C[C@@H](OC(=O)N2Cc3cccc(F)c3C2)CN1C(=O)[C@@H](NC(=O)OC(C)(C)C)C(C)(C)C)C(=O)NS(=O)(=O)C1CC1` [Compound 10], for the setting “V36M vs Wild Type”, the “Fold Increase of EC50” value amounted to 0.7 and the “Fold Increase of EC90” value amounted to 1.5. Under “V36M, read-out: Anti-HCV protease activity EC50”, the 50% effective concentration (EC50) is 3.4 nM. Besides, the EC90 (V36M, read-out: Anti-HCV protease activity EC90) is 45.5 nM.

The values above are taken from patent US8729014B2, “Specific HCV NS3 protease inhibitors” (RFS Pharma, LLC, priority 2010, dated 2014).
